From PubChem BioAssay (NCI)
Several values for one entry are separate records, joined by “and”; a condition that tells them apart may be missing. Identical values can stand only once.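 Each compound was tested at five concentrations against cells in 96-well plates for 48 hours. Here, GI50 denotes the concentration required for 50% inhibition of growth. The concentration for full growth arrest is given as TGI.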

How the values were obtained:
Experiment in all cases: inhibition of tumour cell growth, NCI panel, 48 h
[1] = tested on: MDA-MB-435
[2] = tested on: SK-MEL-28 melanoma
[3] = tested on: CAKI-1 renal
[4] = tested on: A549 NSCLC
[5] = tested on: BT-549 breast
[6] = tested on: DU-145 prostate
[7] = tested on: HCT-116 colon
[8] = tested on: MALME-3M melanoma
[9] = tested on: OVCAR-5 ovarian
[10] = tested on: KM12 colon
[11] = tested on: UACC-257 melanoma
[12] = tested on: SNB-75 CNS
[13] = tested on: SK-MEL-5 melanoma
[14] = tested on: NCI-H460 lung

SMILES | TGI [1] [µM] | TGI [2] | TGI [3] [µM] | TGI [4] [µM] | TGI [5] [µM] | TGI [6] [µM] | TGI [7] | TGI [8] [µM] | TGI [9] [µM] | TGI [10] [µM] | TGI [11] [µM] | TGI [12] [µM] | TGI [13] [µM] | TGI [14] [µM] | GI50 [1] [µM] | GI50 [6] [µM] | GI50 [7] [µM] | GI50 [3] | GI50 [10]
CC1C/C(=N\N(C)C)C(C#N)(C#N)C1(C#N)C#N (configuration not stated) | 37.4 | > 78.6 µM | 3.38 | 69.5 | 22.1 | 34 | 38.4 µM | 13.7 | 48.5 | > 31.6 | 28 | 27 | 44.2 | – | – | – | – | – | –
Cc1c[nH]c(C(=O)O)c1-c1ccc2c(-c3ccccc3)nc3ccccc3n12 | 78.1 | 76.3 µM | > 100 | > 100 | > 100 | > 100 | > 100 µM | – | > 100 | 56.8 | > 100 | 56.4 | > 100 | > 100 | – | – | – | – | –
Cc1ccc2c(=O)c(-c3nnc(N)s3)c[nH]c2n1 | > 100 | > 100 µM | > 100 | > 100 | > 100 | > 100 | > 100 µM | > 100 | > 100 | > 100 | > 100 | – | > 100 | > 100 | – | – | – | – | –
Nc1nc(NNc2ccc(Cl)c(Cl)c2)cc(=O)[nH]1 | 74.1 | > 100 µM | – | > 100 | 82.5 | > 100 | > 100 µM | > 100 | > 100 | > 100 | > 100 | – | > 100 | > 100 | – | – | – | – | –
CN1CCN(C(=S)N(C(=O)c2ccco2)c2ccccc2)CC1 | > 100 | > 100 µM | – | > 100 | > 100 | > 100 | – | > 100 | > 100 | > 100 | > 100 | > 100 | > 100 | > 100 | – | – | – | – | –
CN(C)C=Nc1cccc2cnccc12 | > 100 | > 100 µM | > 100 | > 100 | > 100 | > 100 | > 100 µM | > 100 | > 100 | – | > 100 | > 100 | > 100 | – | – | – | – | – | –
CC(C)CC(=O)NC(NC(C)C)(C(F)(F)F)C(F)(F)F | > 100 | > 100 µM | > 100 | > 100 | > 100 | > 100 | > 100 µM | > 100 | – | > 100 | > 100 | > 100 | > 100 | > 100 | – | – | – | – | –
CN(C)CC(CO)(CN(C)C)CN(C)C | – | > 100 µM | > 100 | > 100 | > 100 | > 100 | > 100 µM | > 100 | > 100 | > 100 | > 100 | > 100 | > 100 | > 100 | – | – | – | – | –
N=C(N)n1[nH]c2c(c1=O)CCCC2 | > 100 | > 100 µM | > 100 | > 100 | – | > 100 | > 100 µM | > 100 | > 100 | > 100 | > 100 | 99.7 | > 100 | > 100 | – | – | – | – | –
CC(=O)[O-].CC(=O)[O-].[NH2-].[Pt+2].c1ccncc1 | > 100 | > 100 µM | > 100 | > 100 | – | 51.9 | > 100 µM | > 100 | > 100 | > 100 | – | > 100 | > 100 | > 100 | 53.2 | 4.62 | – | – | –
CC(=O)Nc1cc2c(cc1O)CC[C@@H]1[C@@H]2CC[C@]2(C)[C@@H](O)CC[C@@H]12 | 50.8 | > 100 µM | > 100 | > 100 | 86.3 | > 100 | > 100 µM | > 100 | > 100 | 31.4 | > 100 | – | 59.8 | > 100 | – | > 100 | 39.8 | – | –
Cc1ccc2c(c1)[nH]c(=S)n2C=C1C(=O)CC(C)(C)CC1=O | > 100 | > 100 µM | > 100 | > 100 | > 100 | > 100 | > 100 µM | – | > 100 | > 100 | > 100 | > 100 | > 100 | > 100 | – | – | – | – | –
Cc1nc2ccccc2c(=O)n1NC(=O)c1ccccc1O | > 100 | > 100 µM | – | > 100 | > 100 | > 100 | > 100 µM | – | > 100 | > 100 | > 100 | > 100 | > 100 | > 100 | – | – | – | – | –
COC(=O)/C=C1/N=C(N(C)/N=C/c2ccccc2)NC1=O | – | > 100 µM | > 100 | > 100 | > 100 | > 100 | > 100 µM | > 100 | > 100 | > 100 | > 100 | > 100 | > 100 | > 100 | – | – | – | – | –
CC(=O)O[C@H]1CC[C@@]2(C)C(=CC[C@@H]3[C@@H]2CC[C@]2(C)C(=N/O)/C(=C/c4ccc([N+](=O)[O-])cc4)C[C@@H]32)C1 | 29.3 | > 100 µM | 6.1 | > 100 | 14 | 31.4 | > 100 µM | > 100 | – | > 100 | 1.55 | 40.5 | 7.95 | > 100 | – | – | – | – | –
O=C(N/N=C1/C(=O)c2c3ccccc3cc3cccc1c23)c1cccc(Cl)c1 | > 100 | > 100 µM | > 100 | > 100 | > 100 | > 100 | > 100 µM | – | > 100 | > 100 | > 100 | > 100 | > 100 | > 100 | – | – | – | – | –
COc1ccc(-n2c(C)nc3ccc(NC4OCC(O)C(O)C4O)cc3c2=O)cc1 (configuration not stated) | > 100 | > 100 µM and 57 µM | > 100 | – | > 100 | > 100 | 40.4 µM and 39.3 µM | > 100 | > 100 | > 100 | > 100 | > 100 | > 100 | > 100 | – | – | – | > 100 µM and 39.5 µM | 36.5 µM and > 100 µM
